Laboratory results: patent US20240228481A1, “NOVEL SULFONAMIDE SERIES OF QR2 INHIBITORS TO TACKLE OXIDATIVE STRESS AND COGNITIVE DECLINE” (CARMEL HAIFA UNIVERSITY ECONOMIC CORPORATION LTD., priority 2021, published 2024)
Where “and” joins values, the source holds several entries; their conditions need not be identical. Equal entries are not always repeated.

How the values were obtained:
[1] = target: T1, QR1 (NQO1) (Homo sapiens, UniProt P15559); test: Selectivity assay with QR1 in place of QR2, absorbance readout; format: biochemical
T1 construct: purchased Sigma-Aldrich
Description: (§1) The enzymatic activity of QR2 (10 nM) was measured using menadione (both Sigma-Aldrich) as substrate and dihydrobenzylnicotamide (BNAH; Tocris) as co-substrate (Boutin et al., 2005). The reaction was performed in 50 mM Tris HCl, 150 mM NaCl 0.01% Tween-20 pH=8.5 (Sigma-Aldrich) at room temperature. Briefly, 3 μL of menadione alone (200 μM) or a mixture of menadione and QR2 (200 μM of menadione and 10 nM of QR2) were dispensed in 1536-well black Nunc plates (Thermo-Fisher) using a Multidrop™ Combi Reagent Dispenser (Thermo-Fisher) and pre-incubated with compounds for 10 min. BNAH (200 μM) was then added (3 μL) to the reaction using a BioNex Solutions BNX 1536 plate washer and the plates were incubated for another 10 min. […] The initial HTS was done with approximately 200,000 compounds at a single concentration of 5 μM. The chemical libraries used were Selleck Chemicals Bioactives, the Drug-like set from Enamine, HitFinder collection from Maybridge, Spectrum Collection from Microsource, Lopac from Sigma-Aldrich and the diversity sets from ChemDiv and ChemBridge. Initial “hit” compounds were defined as causing >30% reduction of enzyme activity. Compounds suspected to be fluorescent were re-assayed in an absorbance assay at 350 nm using the same reaction but in a higher volume (100 μL), in a transparent plate (Greiner Bio-One). “Hit” compounds resulting from both the fluorescence and absorbance assay were tested in a dose-response, and median inhibition concentration (IC50) values were determined. In parallel, the same dose response was used in a selectivity assay where QR2 enzyme was replaced by QR1 (also known as—NQO1, 10 nM; Sigma-Aldrich).
(§2) In order to establish a varied, flexible and chemically amenable starting point from which to develop such inhibitors, the inventors ran a standardized QR2 assay (see methods) against ˜200,000 compounds, from a varied assortment of chemical libraries. […] Compounds that replicated the initial hit result were then assayed similarly, against NQO1, to evaluate compound specificity (FIG. 1B). From the HTS, a series of compounds containing a sulfonamide central linker, with an amine on one side and a heterocycle on the other, were identified and selected for SAR development (FIG. 1C).

[2] = target: T1, QR1 (NQO1); test: Selectivity assay with QR1 in place of QR2, fluorescence readout; format: biochemical
Description: as §1, §2

[3] = in vitro; conditions: human
Description: (§5) THLE-2 (CRL-2706™) were grown in the BEGM Bullet Kit (CC-3170) from Lonza. Besides the additives contained in the kit, the medium was further supplemented with 5 ng/mL EGF (Sigma), 70 ng/mL phosphoethanolamine (Sigma) and 10% FBS (Biological Industries). The plates for the THLE-2 needed to be pre-coated with a mixture of 0.01 mg/mL fibronectin, 0.05 mg/mL of PureCol™ EZ Gel Solution (Sigma) and 0.01 mg/mL of BSA dissolved in BEBM medium (Lonza). The coating medium was aspirated before seeding.
(§6) THLE-2 cells were exposed to the compounds in a 9-point, 2-fold dilution dose response series with a 100 μM as upper limit, for 72 h. Following the 72 h of exposure to the test compounds, cell viability was determined by measuring the concentration of cellular ATP (CellTiter Glo, Promega). The luminescence signal was measured on a Pherastar FS multi-mode plate reader (BMG Labtech). Each data point was tested in a triplicate.
(§7) First, toxicity was assessed in an ATP depletion assay, using THLE-2 cells following a 72 h exposure to a dose response of each of the tested compounds.

[4] = target: T2, QR2 (Homo sapiens, UniProt P16083); test: QR2 enzymatic activity assay (menadione/BNAH), absorbance readout at 350 nm; format: biochemical; set-up: purchased Sigma-Aldrich
T2 sequence (P16083 1-231): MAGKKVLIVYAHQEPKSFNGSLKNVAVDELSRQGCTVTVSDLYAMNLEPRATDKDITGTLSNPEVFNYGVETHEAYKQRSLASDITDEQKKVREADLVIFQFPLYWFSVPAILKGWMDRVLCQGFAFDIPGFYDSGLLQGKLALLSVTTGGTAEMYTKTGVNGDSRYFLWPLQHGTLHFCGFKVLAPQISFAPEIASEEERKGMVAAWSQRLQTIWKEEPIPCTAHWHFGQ
Description: (§3) The enzymatic activity of QR2 (10 nM) was measured using menadione (both Sigma-Aldrich) as substrate and dihydrobenzylnicotamide (BNAH; Tocris) as co-substrate (Boutin et al., 2005). The reaction was performed in 50 mM Tris HCl, 150 mM NaCl 0.01% Tween-20 pH=8.5 (Sigma-Aldrich) at room temperature. Briefly, 3 μL of menadione alone (200 μM) or a mixture of menadione and QR2 (200 μM of menadione and 10 nM of QR2) were dispensed in 1536-well black Nunc plates (Thermo-Fisher) using a Multidrop™ Combi Reagent Dispenser (Thermo-Fisher) and pre-incubated with compounds for 10 min. BNAH (200 μM) was then added (3 μL) to the reaction using a BioNex Solutions BNX 1536 plate washer and the plates were incubated for another 10 min. […] The initial HTS was done with approximately 200,000 compounds at a single concentration of 5 μM. The chemical libraries used were Selleck Chemicals Bioactives, the Drug-like set from Enamine, HitFinder collection from Maybridge, Spectrum Collection from Microsource, Lopac from Sigma-Aldrich and the diversity sets from ChemDiv and ChemBridge. Initial “hit” compounds were defined as causing >30% reduction of enzyme activity. […] “Hit” compounds resulting from both the fluorescence and absorbance assay were tested in a dose-response, and median inhibition concentration (IC50) values were determined. In parallel, the same dose response was used in a selectivity assay where QR2 enzyme was replaced by QR1 (also known as—NQO1, 10 nM; Sigma-Aldrich).
(§4) In order to establish a varied, flexible and chemically amenable starting point from which to develop such inhibitors, the inventors ran a standardized QR2 assay (see methods) against ˜200,000 compounds, from a varied assortment of chemical libraries.

[5] = target: T2, QR2; test: QR2 enzymatic activity assay (menadione/BNAH), fluorescence readout; format: biochemical; set-up: purchased Sigma-Aldrich
Description: as §3, §4

[6] = test system: HEK293T cells; test: XTT cell viability assay; format: cell-based; conditions: 3 h incubation, 20 nM-20 μM
Description: HEK293FT cells were cultured with penicillin-streptomycin antibiotics in Invitrogen DMEM (Thermo Fisher Scientific) with 10% fetal bovine serum and L-glutamine and grown to 80-90% confluence in 100 mm plates, while being passaged every 2-3 days. For the XTT assay (Biological Industries), cells were then collected, centrifuged, and resuspended in fresh minimum essential medium, and seeded at 50,000 cells/well in 96-well, poly-L-lysine-coated Nunc black, clear flat-bottomed plates (Thermo Fisher Scientific). The next day, the cells were treated with increasing doses of QR2 inhibitors or vehicle for 3 h, and the XTT assay was then carried out as according to the manufacturer's instructions.

[7] = target: T2, QR2; test: Cellular thermal shift assay (CETSA) of QR2 in HEK293T cells; format: cell-based; set-up: endogenous in cells; host or cells: HEK293T
Description: The CETSA assay was performed as described (Miettinen and Björklund, 2014) with some modifications. Briefly, HEK293T cells were trypsinized (Biological Industries), washed in PBS (Sigma-Aldrich), and then suspended in PBS containing protease inhibitor cocktail (Roche). The suspended cells were then divided into two Eppendorf tubes and were treated with either: a compound or DMSO (Sigma-Aldrich) for 1 h at 37° C. under shaking. Following treatment, each sample was divided into PCR tubes (100 μL/tube) and subjected to a temperature gradient (ranging from 63 to 80° C.) for 3 minutes. Cell lysates were obtained by 3-cycles of freeze-thaw using liquid nitrogen and a thermal block set to 25° C. Samples were then centrifuged at 15,000 rpm at 4° C. for 20 min and were subsequently analyzed by western blot targeting QR2 (1:100, Santa Cruz; sc-271665). The isothermal dose response fingerprint (ITDRF) experiments were done using a constant temperature of 73° C. Band intensities were normalized to the highest concentration and superoxide dismutase 1 (SOD1) levels (1:200, Santa Cruz; sc-17767). Analysis of the results were performed according to Jafari et al., (2014) using GraphPad Prism software.
To establish direct target engagement, as well as cell membrane permeability, a cellular thermal shift assay (CETSA) was carried out (see methods), using the leading compounds YB-537, YB-800, and YB-808. Following 1 h preincubation with 5 μM of each of the compounds, or vehicle, thermal aggregation curves (Tagg) of QR2 expressed in HEK293T were measured in increasing temperatures. […] Based on the Tagg curves, the inventors selected 73° C. for isothermal dose-response fingerprint (IDTRF) experiments (FIG. 2B).

[8] = Cell toxicity assay (ATP depletion, CellTiter Glo); conditions: human
Description: as §5, §6, §7

[9] = test system: THLE-2 cells; test: Cell toxicity assay (ATP depletion, CellTiter Glo); conditions: 72 h incubation, CellTiter Glo
Description: as §5, §6, §7

T1 sequence (P15559 whole entry): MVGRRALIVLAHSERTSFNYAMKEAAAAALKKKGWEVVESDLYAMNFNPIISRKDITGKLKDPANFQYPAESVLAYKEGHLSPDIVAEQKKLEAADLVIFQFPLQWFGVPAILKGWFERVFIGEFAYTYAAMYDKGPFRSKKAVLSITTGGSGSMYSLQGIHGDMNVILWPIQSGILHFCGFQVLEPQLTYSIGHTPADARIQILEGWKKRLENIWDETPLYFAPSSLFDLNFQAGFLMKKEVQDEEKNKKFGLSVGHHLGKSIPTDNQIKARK

Row | IC50 [1] | IC50 [2] | IC50 at 72 h [3] | IC50 [4] | IC50 [5] | SMILES | toxicity in XTT assay [6] | thermal stability of QR2 (thermal aggregation curve) versus vehicle ([7]; 5 μM, 1 h preincubation) | EC50 ([7]; CETSA at 73° C., read-out: EC50 of QR2 stabilization (isothermal dose-response fingerprint)) | IC50 at 72 h [8] | median lethal dose (LD50) in THLE cells [9]
1 | > 9.99 µM | > 9.99 µM | > 100 µM | 0.02 µM | 0.19 µM | Cc1cccn2cc(-c3cccc(S(=O)(=O)N(C)C)c3)nc12 [PCM-0213804] | – | – | – | – | –
2 | 7.18 µM | > 9.99 µM | > 99 µM | 0.02 µM | 0.02 µM | Cc1cccn2cc(-c3cccc(S(=O)(=O)NCc4cccnc4)c3)nc12 [PCM-0213814] | – | – | – | – | –
3 | > 9.99 µM | > 9.99 µM | > 99 µM | 0.03 µM | 0.02 µM | Cc1ccc(-c2cn3cccc(C)c3n2)cc1S(=O)(=O)N1CCCCCC1 [PCM-0214338] | – | – | – | – | –

Row | SMILES | IC50 [1] | IC50 [2] | IC50 at 72 h [3] | IC50 [4] | IC50 [5] | toxicity in XTT assay [6] | thermal stability of QR2 (thermal aggregation curve) versus vehicle ([7]; 5 μM, 1 h preincubation) | EC50 ([7]; CETSA at 73° C., read-out: EC50 of QR2 stabilization (isothermal dose-response fingerprint)) | IC50 at 72 h [8] | median lethal dose (LD50) in THLE cells [9]
4 | Cc1ccc(-c2cn3cccc(C)c3n2)cc1S(=O)(=O)N1CCCC1 [YB-808] | > 9.99 µM | > 9.99 µM | – | – | 0.01 µM | no toxicity | shifts of thermal stability | 0.013 µM | 59.7 µM | 59.7 µM and 59.704 µM
